PubChem BioAssay (NCI)
≈ marks a conversion by molar mass, not a printed value.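 Grown in 96-well plates, cells were treated for 48 hours with each compound at five concentrations. Insufficient inhibition: endpoint recorded as highest concentration tested. GI50: concentration for 50% inhibition of growth. TGI denotes the concentration required for complete inhibition of growth.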

Key:
Assay in all cases: NCI-60 cell line screen, 48 h
UO-31 renal = test system: UO-31 renal
MCF7 breast = test system: MCF7 breast
SK-MEL-5 melanoma = test system: SK-MEL-5 melanoma
DMS 273 small cell lung = test system: DMS 273 small cell lung
HOP-18 NSCLC = test system: HOP-18 NSCLC
RPMI-8226 leukemia = test system: RPMI-8226 leukemia
RXF 393 renal = test system: RXF 393 renal
A498 renal = test system: A498 renal
U251 CNS = test system: U251 CNS
M19-MEL melanoma = test system: M19-MEL melanoma
DU-145 prostate = test system: DU-145 prostate

Row | SMILES | TGI (UO-31 renal) | TGI (MCF7 breast) | TGI (SK-MEL-5 melanoma) | TGI (DMS 273 small cell lung) | TGI (HOP-18 NSCLC) | TGI (RPMI-8226 leukemia) | TGI (RXF 393 renal) | TGI (A498 renal) | TGI (U251 CNS) | TGI (M19-MEL melanoma) | GI50 (UO-31 renal) | GI50 (M19-MEL melanoma) | GI50 (MCF7 breast) | GI50 (RPMI-8226 leukemia) | GI50 (RXF 393 renal) | GI50 (A498 renal) | GI50 (U251 CNS) | TGI (DU-145 prostate) | GI50 (DU-145 prostate) | GI50 (SK-MEL-5 melanoma)
1 | CC(=O)OC1CCC2(C)C(CCC3C2CCC2(C)C(c4ccc(=O)oc4)C(OC(C)=O)CC32O)C1 (configuration not stated) | 0.0712 µM | 0.229 µM | 0.0216 µM | 0.0194 µM | 0.068 µM | 0.0595 µM | 0.0128 µM | 0.161 µM | 0.137 µM |  |  |  |  |  |  |  |  |  |  | 
2 | CC/C(CC(=O)CCC(=O)Nc1ccc(C)c(C)c1)=N\NC(=O)c1cc2ccccc2cc1O | > 100 µM |  |  |  | 88.1 µM |  | 66.7 µM |  | > 100 µM | > 100 µM |  |  |  |  |  |  |  |  |  | 
3 | Cc1c2ccncc2c(C)c2c1[nH]c1ccc(O)cc12 | 1.09 µg/mL | 0.338 µg/mL |  |  |  | 0.129 µg/mL |  | 1.9 µg/mL | 0.35 µg/mL | 0.388 µg/mL | 0.073 µg/mL | 0.0231 µg/mL (≈ 0.0881 µM) | 0.0319 µg/mL | 0.0217 µg/mL | 0.102 µg/mL | 0.501 µg/mL | 0.042 µg/mL |  |  | 
4 | CCCOC(=O)CCC(NC(=O)c1ccc(Nc2nc3ccccc3nc2-c2cccs2)cc1)C(=O)OCCC (configuration not stated) | > 100 µM |  | > 100 µM | > 100 µM | > 100 µM | > 100 µM | > 100 µM |  | > 100 µM | > 100 µM |  |  |  |  |  |  |  |  |  | 
5 | CCOC(=O)CN(CC)C(=O)NC12CC3CC(CC(C3)C1)C2 | 389 µM | 461 µM | 211 µM | > 705 µM | 609 µM | 454 µM | 509 µM | 413 µM | > 536 µM | 472 µM |  |  |  |  |  |  |  |  |  | 
6 | Cc1c(CCCl)c(Cl)n2c(nc3ccccc32)c1C#N | 2.56 µM | 5.28 µM | 2.35 µM | 3.15 µM | 3.95 µM | 0.385 µM | 3 µM | 2.83 µM | 2.34 µM | 9.76 µM |  |  |  |  |  |  |  | 4.56 µM |  | 
7 | O=C1C=C2SC3C[C@@]24CC1(O)[N+]1=c2c4c(c(O)c4c2=C(C=N4)CC1)N3 | 3.48 µM | 0.972 µM | 2.91 µM | 2.97 µM | 3.9 µM | 1.62 µM | 2.71 µM | 3.33 µM | 3.14 µM | 0.773 µM |  |  |  |  |  |  |  |  |  | 
8 | O=C(c1ccccc1)c1nn(-c2cccc(Cl)c2)c2nc3nc(-c4ccccc4)cc(=O)n3nc12 | > 25 µM | > 25 µM | > 25 µM |  |  | > 25 µM | > 25 µM | > 25 µM | > 25 µM |  | > 25 µM |  | > 25 µM | > 25 µM | > 25 µM | > 25 µM | > 25 µM | > 25 µM | > 25 µM | > 25 µM
9 | CSC(SC)=C(C#N)C(=O)Nc1ccc(Cl)cc1 | 65.2 µM | > 100 µM | > 100 µM |  |  | > 100 µM | 54.9 µM | 90.4 µM | > 100 µM |  |  |  |  |  |  |  |  | > 100 µM |  | 
10 | NC1=Nc2ncccc2C(=O)NN1 | > 10 µM | > 10 µM | > 10 µM |  |  | > 10 µM | > 10 µM | > 10 µM | > 10 µM |  |  |  |  |  |  |  |  | > 10 µM |  | 
11 | COc1cccc(C2c3cc4c(cc3OC(NNS(=O)(=O)c3ccc(C)cc3)C2C)OCO4)c1O (configuration not stated) | > 100 µM | 51.2 µM | 42 µM |  |  | 32.4 µM | 70.9 µM | 70.4 µM | > 100 µM |  |  |  |  |  |  |  |  | > 100 µM |  | 
12 | Cc1ccc(NC(c2ccccc2)P(=O)(c2ccccc2)c2ccccc2)cc1 (configuration not stated) | > 100 µM | > 100 µM | > 100 µM |  |  | > 100 µM | > 100 µM | > 100 µM | > 100 µM |  |  |  |  |  |  |  |  | > 100 µM |  | 
13 | O=S(c1ccc(O)cc1)c1ccc(O)cc1 | > 100 µM |  | > 100 µM | > 100 µM |  | > 100 µM | > 100 µM |  | > 100 µM | > 100 µM |  |  |  |  |  |  |  |  |  | 
14 | O=C(O)COc1c(Cl)cc(Cl)c(C(c2c(Cl)cc(Cl)c(OCC(=O)O)c2Cl)C(Cl)(Cl)Cl)c1Cl | 55.2 µM | > 100 µM | 40.6 µM |  |  | 85.9 µM | 92.7 µM | > 100 µM | 77.4 µM |  |  |  |  |  |  |  |  | > 100 µM |  | 
15 | CCN(CC)C(=O)N[C@@H](CC(C)C)C(=O)NC | > 100 µM | > 100 µM | > 100 µM |  |  | > 100 µM | > 100 µM | > 100 µM | > 100 µM |  |  |  |  |  |  |  |  | > 100 µM |  | 
16 | CNC(=O)OC1/C(C)=C\C(C)C(O)C(OC)CC(C)CC2=C(OC)C(=O)C=C(C2=O)N(C)C(=O)/C(C)=C/C=C\C1OC (configuration not stated) | 31.7 µM |  | 21.5 µM | 14.8 µM | 22.7 µM | 13.2 µM | 17.9 µM | 42.8 µM | 31.4 µM | 14.7 µM |  |  |  |  |  |  |  | > 41.8 µM |  | 
